{"source": "patent US20230233565A1", "about": "“A TREATMENT APPROACH INVOLVING KIF18A INHIBITION FOR CHROMOSOMALLY UNSTABLE TUMORS” (UNIVERSITY OF VERMONT, priority 2020, published 2023)", "assay_type_in_all_cases": "cell-based", "key": {"diploid MCF10A cells [1]": {"test_system": "diploid MCF10A cells", "test": "Mitotic index from fixed-cell images", "conditions": "10 nM paclitaxel, 24 h", "procedure": "(§1) For experiments involving siRNA knockdown followed by drug treatment, the indicated concentrations of paclitaxel (Selleck Chemicals, Houston, Tex.), nocodazole (Selleck Chemicals, Houston, Tex.), and/or monastrol (Selleck Chemicals, Houston, Tex.) were added to cells 24 h after siRNA treatment. Three hours after drug addition, cells were either fixed and stained for immunofluorescence imaging or imaged live in a glass-bottom 24-well dish. To compare the effects of paclitaxel treatment to the effects of KIF18A KD in MDA-MB-231 and MCF10A cell lines, 10 nM of paclitaxel was added to cells 24 h before fixing and staining for immunofluorescence imaging.\n(§2) To measure the length of mitosis, live cells were imaged every two minutes for 16-20 hours using differential interference contrast (DIC) microscopy. The time between nuclear envelope breakdown (NEB) and anaphase onset (AO) was used to indicate the time a cell spent in mitosis. Mitotic index was measured using fixed-cell images by counting the number of mitotic cells divided by the total number of cells. All mitotic index fields were taken with a 40×objective. An unpaired t-test was used to determine statistical significance between control and KIF18A KD conditions for each cell line."}, "MDA-MB-231 cells [2]": {"test_system": "MDA-MB-231 cells", "test": "Mitotic spindle morphology analysis (multipolar spindles, centrioles, fixed cells)", "procedure": "as §1\nCells were grown on glass coverslips and fixed using either −20° C. methanol or 1% paraformaldehyde in −20° C. methanol. Cells were blocked with 20% goat serum in antibody diluting buffer (Abdil—TBS, 1% BSA, 0.1% Triton X-100, and 0.1% sodium azide) and incubated with the following primary antibodies: mouse anti-α-tubulin (DM1α) 1:500 (Millipore Sigma, Burlington Mass.) for one hour at room temperature (RT), human anti-centromere antibody (ACA) 1:250 (Antibodies Incorporated) overnight at 4° C., rabbit anti-γ-tubulin 1:500 (Abcam, Cambridge, Mass.) for one hour at RT, mouse anti-γ-tubulin 1:500 for one hour at RT (Abcam, Cambridge, Mass.), rabbit anti-KIF18A 1:100 (Bethyl Laboratories, Montgomery, Tex.) at 4° C. overnight, mouse anti-centrin-1 1:500 (Santa Cruz Biotechnology) for one hour at RT, and rabbit KIF18B 1:2000 (Shin et al., “Biased Brownian Motion as a Mechanism to Facilitate Nanometer-scale Exploration of the Microtubule Plus End by a Kinesin-8,” Proc National Acad Sci 112:E3826-35 (2015), which is hereby incorporated by reference in its entirety) for one hour at RT. Secondary antibodies conjugated to Alexa Fluor 488, 594, and 647 (Molecular Probes, Eugene, Oreg.) were used at concentrations of 1:15000 for one hour at RT. Coverslips were mounted onto glass slides using Prolong Gold anti-fade mounting medium with DAPI (Molecular Probes, Eugene, Oreg.).\n(§3) To analyze mitotic spindle morphology, cells were fixed and stained for γ-tubulin, α-tubulin, and centrin-1. Enough optical slices spaced 200 nm apart were captured to visualize the entire 3-D structure of the spindle. Spindles with three or more visible microtubule-organizing centers were classified as multipolar. Cells were considered to have fragmented pericentriolar material (PCM) if they had supernumerary poles observed via γ-tubulin staining but lacked centrioles (centrin-1 puncta) at one or more of the poles. Intercentriolar distance, or the distance in microns between two centrioles in a pair, was measured from the center of one centriole to the center of the adjacent centriole."}, "diploid MCF10A cells [3]": {"test_system": "diploid MCF10A cells", "test": "Mitotic spindle morphology analysis (multipolar spindles, fixed cells)", "conditions": "10 nM paclitaxel, 24 h", "procedure": "as §1, §3"}, "MDA-MB-231 cells [4]": {"test_system": "MDA-MB-231 cells", "test": "Kinetic cell proliferation assay, siRNA plus UMK57 or DMSO", "procedure": "HT29, LoVo, SW480, LS1034, HCC1806, HCT116, MCF10A, MDA-MB-231, and MDA-MB-468 cells were purchased from ATCC (Manassas, Va.). All cell lines were validated by STR DNA fingerprinting using the Promega GenePrint® 10 System according to manufacturer's instructions (Promega #B9510). HT29, LoVo, SW480, MDA-MB-231, and MDA-MB-468 cells were cultured in DMEM/F-12 medium (Gibco) supplemented with 10% FBS (Gibco) and 1% penicillin/streptomycin (pen/strep). LS1034 and HCC1806 cells were cultured in RPMI 1640 medium (Gibco) with 10% FBS and 1% pen/strep. […]\nCells were imaged in either a 96- or 24-well dish every two or four hours for up to five days using the Cytation 5 Cell Imaging Multi-Mode Reader (Biotek, Winooski, Vt.) driven by Gen5 software (Biotek, Winooski, Vt.). […] Between imaging reads, cells were incubated at 37° C. with 5% CO2 using the Biospa 8 Automated Incubator (Biotek, Winooski, Vt.). […] To determine rates of cell proliferation, the fold change in cells/mm^2 between the first and last reads of each well were calculated and normalized to the control for each experiment. […] For cytotoxicity assays, CellTox™ Green Dye (Promega, Madison, Wis.) was added to cell media prior to imaging, and the number of cells/mm^2 was recorded for both GFP and brightfield channels. […]"}, "MDA-MB-231 cells [5]": {"test_system": "MDA-MB-231 cells", "test": "Mitotic index from fixed-cell images", "conditions": "500 nM UMK57 in KIF18A-depleted cells, versus DMSO", "procedure": "as §1, §2"}, "MDA-MB-231 cells [6]": {"test_system": "MDA-MB-231 cells", "test": "Live imaging with siR-tubulin (spindle pole splitting)", "conditions": "UMK57 in KIF18A KD cells", "procedure": "Cells were plated in a glass-bottom 24-well dish and treated with the indicated siRNA approximately 24 hours before imaging. Six hours before imaging, the cell culture media was replaced with CO2-independent media containing […] SiR-tubulin (Cytoskeleton). For conditions involving UMK57 or DMSO, the specified drug was added to the CO2-independent media with siR-tubulin. Cells were imaged every 2 minutes for 16-20 hours using a 40×0.75 NA objective (Nikon)."}}}
{"smiles": "CC(=O)O[C@H]1C(=O)[C@@]2(C)[C@H]([C@H](OC(=O)c3ccccc3)[C@]3(O)C[C@H](OC(=O)[C@H](O)[C@@H](NC(=O)c4ccccc4)c4ccccc4)C(C)=C1C3(C)C)[C@]1(OC(C)=O)CO[C@@H]1C[C@@H]2O", "note": "[paclitaxel]", "values": [{"measurement": "mitotic index", "setting": "diploid MCF10A cells [1]", "result": "increased the mitotic index"}, {"measurement": "multipolar spindles in KIF18A KD cells", "setting": "MDA-MB-231 cells [2]; 20 nM paclitaxel for 3 h, versus DMSO", "result": "significantly fewer multipolar spindles"}, {"measurement": "mitotic defects (mitotic index, multipolar spindles)", "setting": "MDA-MB-231 cells [2]; MDA-MB-231, KIF18A KD versus 10 nM paclitaxel (24 h)", "result": "produced similar mitotic defects"}, {"measurement": "multipolar spindles", "setting": "diploid MCF10A cells [3]", "result": "increased"}]}
{"smiles": "COC(=O)Nc1nc2ccc(C(=O)c3cccs3)cc2[nH]1", "note": "[nocodazole]", "values": [{"measurement": "multipolar spindles in KIF18A KD cells", "setting": "MDA-MB-231 cells [2]; 5 μM nocodazole for 3 h, versus DMSO", "result": "significantly fewer multipolar spindles"}]}
{"smiles": "Cc1ccc(-c2csc3ncnc(N4CCCC4)c23)cc1", "note": "[UMK57]", "values": [{"measurement": "proliferation", "setting": "MDA-MB-231 cells [4]; 500 nM UMK57 in KIF18A-depleted cells, versus DMSO", "result": "decreased proliferation"}, {"measurement": "proliferation", "setting": "MDA-MB-231 cells [4]; 500 nM UMK57 in control siRNA-treated cells", "result": "no impact on the proliferation"}, {"measurement": "mitotic index", "setting": "MDA-MB-231 cells [5]", "result": "increased"}, {"measurement": "percentage of multipolar spindles", "setting": "MDA-MB-231 cells [2]; 500 nM UMK57 in KIF18A KD cells, versus DMSO", "result": "small but significant increase in multipolar spindles"}, {"measurement": "chromosome alignment defects in bipolar spindles", "setting": "MDA-MB-231 cells [2]; UMK57 in KIF18A KD cells", "result": "without an obvious change in chromosome alignment defects"}, {"measurement": "spindle pole splitting", "setting": "MDA-MB-231 cells [6]", "result": "increased spindle pole splitting"}]}
